The test system of experiment [1] is enterobacteria. The settings on record: cited from earlier work.
Experiment [2] concerns log phase methicillin resistant Staphylococcus aureus clinical strain. Briefly: Time kill, HT013006 with gentamycin, log phase MRSA clinical strain. Type of experiment: cell-based.
Experiment [3] has as its system log phase S. aureus. Briefly: Chequerboard method, HT013006 (NDGA) with gentamycin, log phase S. aureus. The settings on record: for MIC before combination: drug alone, log phase S. aureus. Type of experiment: cell-based, Staphylococcus aureus. As to the method: Log phase growth of S. aureus was carried out as described in the art. HT013006 in combination with gentamycin against log phase S. aureus using chequerboard method The effects of combination were examined by calculating the fractional inhibitory concentration index (FICI) of each combination, as follows: (MIC of drug A, tested in combination)/(MIC of drug A, tested alone)+(MIC of drug B, tested in combination)/(MIC of drug B, tested alone). The interaction of the combination was defined as showing synergy if the FICI was ≦0.5, no interaction if the FICI was >0.5 but <4.0 and antagonism if the FICI was >4.0.

The test system of experiment [4] is log phase Staphylococcus aureus Oxford strain. Kind of experiment: Time kill, HT013006 with neomycin, log phase S. aureus Oxford strain. The experiment is classed as cell-based. As to the method: Using the methods described in Example 2, HT013006 was tested in combination with neomycin against log phase Staphylococcus aureus Oxford strain over a time period of 24 hours.

Experiment [5] relates to log phase Staphylococcus aureus gentamycin resistant clinical strain. Briefly: Time kill, HT013006 with gentamycin, gentamycin resistant clinical strain. The experiment is classed as cell-based. As to the method:
• 1. HT013006 at 16 and 8 μg/ml had no activities against log phase MRSA. • 2. […] The minimal concentration of HT013006 was 2 μg/ml when combined with 0.5 and 0.25 μg/ml of gentamycin. • (b) log phase phase Staphylococcus aureus gentamycin resistant clinical strain by time kill (340)

The subject of experiment [6] is log phase S. aureus. Kind of experiment: Time kill curve, HT013006 alone and with gentamycin, log phase S. aureus. The experiment is classed as cell-based, Staphylococcus aureus. An excerpt:
HT013006 alone and in combination with gentamycin against log phase S. aureus using time kill curve.

For experiment [7], the system named is yeast pathogens. The settings on record: against yeast pathogens; cited from earlier work.
Where [8] appears, read: HT013006 alone at 16, 8, 4 and 2 μg/ml.

Regarding `Cc1cn([C@H]2C[C@H](N=[N+]=[N-])[C@@H](CO)O2)c(=O)[nH]c1=O` [AZT, zidovudine], the “interaction with the aminoglycosides amikacin and gentamycin” value in experiment [1] (against enterobacteria) is recorded as “additive or synergistic activity”. For the same compound, the effect on bacteria entry in experiment [1] (some enterobacteria) is given as “bactericidal effect”.

`CC(Cc1ccc(O)c(O)c1)C(C)Cc1ccc(O)c(O)c1` (stereo not shown) [HT013006, nordihydroguaiaretic acid]: the “activity in time kill” value was “no activities” in experiment [2] (HT013006 alone at 16 and 8 μg/ml, log phase MRSA); “no activities” in experiment [4] (HT013006 alone at 16, 8, 4 and 2 μg/ml, 24 hours); “no activities” in experiment [5] (setting [8]); “no activities” in experiment [6] (setting [8]); “no activities” in experiment [6] (HT013006 alone at 16 and 8 μg/ml). The “minimal concentration of HT013006 in combination” value in experiment [2] (combined with 0.5 and 0.25 μg/ml of gentamycin) stood at 2 µg/mL. In addition, the “MIC of HT013006 in combination” value in experiment [3] (combined with 0.25 μg/ml of gentamycin) amounted to 1 mg/L. Besides, the MIC before combination in experiment [3] worked out at 64 mg/L. Also, the “minimal concentration of HT013006 which showed maximal enhanced effect” value in experiment [4] (in combination with neomycin) came out at 8 µg/mL. The “minimal concentration of HT013006 which showed enhanced activities” value in experiment [5] (combined with 4 and 2 μg/ml of gentamycin) is 2 µg/mL. In experiment [7], the “effect on amphotericin B activity” value is on record as “enhancing the effect of amphotericin B”.

Take gentamycin [reference compound]: the “MIC of gentamycin in combination” value in experiment [3] (combined with 16 μg/ml of HT013006) was found to be 0.0078 mg/L. The MIC before combination in experiment [3] is 0.5 mg/L. In addition, the “activity in time kill” value was “no activities” in experiment [5] (gentamycin at 4, 2, 1 and 0.5 ug/ml, strain 17); “no activity” in experiment [6] (gentamycin 0.0625 μg/ml); “inhibition over 8 hours of treatment, then regrowth was seen” in experiment [6] (gentamycin 0.125 μg/ml). For the same compound, the regrowth result was “regrowth was seen after 4 hours” in experiment [6] (gentamycin 0.25 μg/ml) and “regrowth was seen after 2 hours” in experiment [6] (gentamycin 0.5 μg/ml). In addition, the kill in experiment [6] (gentamycin 0.25 μg/ml, at 4 hours of incubation) was determined as 3 log; in experiment [6] (gentamycin 0.5 μg/ml, at 2 hours of incubation) it was 3.5 log.

The values above are taken from patent publication US20160038438A1, “COMBINATION OF NORDIHYDROGUAIARETIC ACID AND AN AMINOGLYCOSIDE” (HELPERBY THERAPEUTICS LIMITED, priority 2013, published 2016).
